One test relates to Karpas422 cells. Description: Tumor cell growth inhibition assay. The test is classed as cell-based. The method, boiled down:
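Growth inhibition was measured by ATPlite luminescence after six days of culture at 37° C. in 5% CO2. Karpas422 cells were seeded at 2,000 per well in Alpha-MEM plus 10% FBS. Compounds were given as a 10-point concentration series with a highest dose of 5 uM.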

In another test the target is BCL6 BTB domain (Homo sapiens (Human), UniProt P41182). Description: Surface plasmon resonance (SPR) assay. The test is classed as binding. Particulars: BCL6 BTB domain captured on SA chip, single cycle kinetics. A general note: Surface plasmon resonance follows binding to a sensor surface in real time, without labels.
The subject of test [1] is BCL6 reporter construct (3xBCL6-TK-Luc) in SuDHL4 cells. Description: Cell-based luciferase assay. In outline:
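SuDHL4 cells stably carrying a 3×BCL6-site TK-promoter firefly luciferase reporter, seeded at 15,000 cells/well, were dosed over a 10-point range (top 10 uM) and grown two days at 37 °C, 5% CO2. Luminescence then read after adding neolite reagent at room temperature.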

Where [2] appears, read: Homo sapiens, KARPAS-422, 144 h, read-out: Tumor Growth Inhibition in Karpas-422 (IC50, uM), Karpas422 cells, six days, ATPlite.
Setting [3] is: Homo sapiens, SU-DHL-4, 48 h, read-out: Luciferase-Assay EC50, uM), SuDHL4-3xBCL6-TK-Luc cells, two days, high dose 10 uM.
Setting [4] is: read-out: Tumor Growth Inhibition in Karpas-422 (IC50), Karpas422 cells, six days, ATPlite.
[5] abbreviates: read-out: Luciferase-Assay EC50, SuDHL4-3xBCL6-TK-Luc cells, two days, high dose 10 uM.

The text below walks through data of patent US11518764B2, “Substituted heteroaryls as inhibitors of the BCL6 BTB domain protein-protein interaction” (Ontario Institute for Cancer Research (OICR), priority 2018, dated 2022).

Read-outs that look alike come from different tables or passages of the source.

As to `Cn1cnc2c(c(-c3cc(Cl)c(O)c(C(N)=O)c3)cn2CC(=O)Nc2cc3cnn(C)c3cc2Cl)c1=O` [Compound I-181], the IC50 (in general, the concentration that gives 50% inhibition) in the test on Karpas422 cells (setting [2]) was 10 µM. Also, the Kd – broadly, the constant that tells how readily two partners part at equilibrium – on BCL6 BTB domain came to 617 nM. The EC50 (usually the concentration giving half of the maximal effect) in test [1] (setting [3]) is 33 µM.

Take `Cn1cc2cc(NC(=O)Cn3cc(-c4cc(Cl)c(O)c(C(N)=O)c4)c4c(=O)n(C)cnc43)c(Cl)cc2n1` [Compound I-182]: in the test on Karpas422 cells (setting [2]), the IC50 turned out to be 1.03 µM. On BCL6 BTB domain, the Kd amounted to 86.3 nM. Besides, the EC50 in test [1] (setting [3]) is 1.41 µM.

For `CN1CCc2cc(NC(=O)Cn3cc(-c4cc(Cl)c(O)c(C(N)=O)c4)c4c(=O)n(C)cnc43)c(Cl)cc21` [Compound I-183], in the test on Karpas422 cells (setting [2]), the IC50 turned out to be 10 µM. For the same compound, binding at BCL6 BTB domain was put at a Kd of 221 nM. Moreover, the EC50 in test [1] (setting [3]) was found to be 3.91 µM.

As to `CN1CCOC2(CCN(c3cc(NC(=O)Cn4cc(-c5cc(C(N)=O)c(O)cc5F)c5c(=O)n(C)cnc54)c(Cl)cn3)C2)C1` (stereo not drawn) [Compound I-184], the IC50 with Karpas422 cells (setting [2]) worked out at 0.26 µM. Moreover, binding on BCL6 BTB domain was characterised by a dissociation constant (Kd) of 37.4 nM. In addition, the EC50 in test [1] (setting [3]) came out at 0.348 µM.

Turning to `Cn1cnc2c(c(-c3cc(Cl)c(O)c(C(N)=O)c3)cn2CC(=O)Nc2c(Cl)cnc(N3CCOCC3)c2F)c1=O` [Compound I-185], the IC50 with Karpas422 cells (setting [4]) came to 2.2 µM. At BCL6 BTB domain, this compound yielded a Kd of 118 nM. In addition, the EC50 in test [1] (setting [3]) is 3.44 µM.

As for `CN1CCN(c2cc(NC(=O)Cn3cc(-c4cc(C(N)=O)c(O)c(Cl)c4F)c4c(=O)n(C)cnc43)c(Cl)cn2)CC1` [Compound I-188], the IC50 in the test with Karpas422 cells (setting [2]) was 2.95 µM. The affinity on BCL6 BTB domain, expressed as Kd, was 435 nM. Moreover, in test [1] (setting [3]), the EC50 was determined as 4.75 µM.

Take `COc1c(O)c(C(N)=O)cc(-c2cn(CC(=O)Nc3cc(N4CCN(C)CC4)ncc3Cl)c3ncn(C)c(=O)c23)c1F` [Compound I-189]: the IC50 with Karpas422 cells (setting [2]) amounted to 2.19 µM. This compound registered a Kd at BCL6 BTB domain of 143 nM. Moreover, in test [1] (setting [3]), the EC50 amounted to 1.69 µM.

`Cn1cnc2c(c(-c3cc(Cl)c(O)c(C(N)=O)c3)cn2CC(=O)Nc2c(Cl)cnc(N3CCOCC3)c2F)c1=O` [Compound I-191]: the IC50 in the test with Karpas422 cells (setting [4]) was found to be 4.72 µM. On BCL6 BTB domain, this compound returned an equilibrium dissociation constant (Kd) of 122 nM. The half-maximal effective concentration (EC50) in test [1] (setting [5]) was found to be 5.42 µM.

As to `C[C@@H]1CN(c2cc(NC(=O)Cn3cc(-c4cc(C(N)=O)c(O)c(Cl)c4F)c4c(=O)n(C)cnc43)c(Cl)cn2)C[C@H](C)O1` [Compound I-192], the IC50 in the test on Karpas422 cells (setting [4]) came out at 1.24 µM. This compound also registered a Kd on BCL6 BTB domain of 757 nM. In test [1] (setting [5]), the EC50 is 3.98 µM.

`COc1c(O)c(C(N)=O)cc(-c2cn(CC(=O)Nc3cc(N4C[C@@H](C)N[C@@H](C)C4)ncc3Cl)c3ncn(C)c(=O)c23)c1F` [Compound I-193]: the concentration for half-maximal inhibition (IC50) in the test with Karpas422 cells (setting [2]) is 2.66 µM. The same compound gave a Kd on BCL6 BTB domain of 229 nM. The EC50 in test [1] (setting [3]) was 5.39 µM.

As to `Cc1c(N2CCOCC2)ncc(F)c1NC(=O)Cn1cc(-c2cc(Cl)c(O)c(C(N)=O)c2)c2c(=O)n(C)cnc21` [Compound I-194], in the test on Karpas422 cells (setting [2]), the IC50 was found to be 5.65 µM. Also, at BCL6 BTB domain, binding was characterised by a dissociation constant (Kd) of 120 nM. In addition, the EC50 in test [1] (setting [3]) was determined as 11 µM.

Turning to `Cn1cnc2c(c(-c3cc(Cl)c(O)c(C(N)=O)c3)cn2CC(=O)Nc2cc(N3CCOCC3)c(F)cc2Cl)c1=O` [Compound I-195], in the test with Karpas422 cells (setting [2]), the IC50 was 1.08 µM. The same compound yielded a Kd on BCL6 BTB domain of 196 nM. The EC50 in test [1] (setting [3]) was found to be 1.5 µM.

In the case of `Cn1cnc2c(c(-c3cc(C(N)=O)c(O)c(Cl)c3F)cn2CC(=O)Nc2cc(N3CCOCC3)ncc2F)c1=O` [Compound I-196], the IC50 in the test with Karpas422 cells (setting [2]) came out at 10 µM. For the same compound, the Kd on BCL6 BTB domain came out at 323 nM. Besides, in test [1] (setting [3]), the EC50 came out at 6.34 µM.

Consider `COc1c(O)c(C(N)=O)cc(-c2cn(CC(=O)Nc3cc(N4CCOCC4)ncc3F)c3ncn(C)c(=O)c23)c1F` [Compound I-197], for which the IC50 with Karpas422 cells (setting [2]) was 10 µM. This compound came in with a Kd at BCL6 BTB domain of 218 nM. For the same compound, in test [1] (setting [3]), the EC50 was 4.01 µM.

As to `C[C@@H](CO)Nc1cc(NC(=O)Cn2cc(-c3cc(Cl)c(O)c(C(N)=O)c3)c3c(=O)n(C)cnc32)c(Cl)cn1` [Compound I-198], the IC50 in the test on Karpas422 cells (setting [2]) turned out to be 3.02 µM. The compound also returned a dissociation constant Kd at BCL6 BTB domain of 21.7 nM. In addition, the EC50 in test [1] (setting [3]) came out at 5.82 µM.

Take `Cc1nc2c(c(-c3cc(F)c(O)c(C(N)=O)c3)cn2CC(=O)Nc2cc(N3CC4CCC(C3)O4)ncc2Cl)c(=O)n1C` [Compound I-199]: in the test with Karpas422 cells (setting [2]), the IC50 stood at 0.0909 µM. On BCL6 BTB domain, the affinity, expressed as Kd, was 8.18 nM. The EC50 in test [1] (setting [3]) was 0.117 µM.

Take `Cn1cnc2c(c(-c3cc(Cl)c(O)c(C(N)=O)c3)cn2CC(=O)Nc2cc(N3CCOCC3)nc(F)c2Cl)c1=O` [Compound I-200]: the 50% inhibitory concentration (IC50) in the test with Karpas422 cells (setting [2]) is 0.133 µM. The compound further yielded an equilibrium dissociation constant (Kd) on BCL6 BTB domain of 17.9 nM. The EC50 in test [1] (setting [3]) came out at 0.158 µM.

Consider `Cn1cnc2c(c(-c3cc(Cl)c(O)c(C(N)=O)c3)cn2CC(=O)Nc2cc(N3CC(C)(C)NC(C)(C)C3)ncc2Cl)c1=O` [Compound I-201], for which the IC50 in the test with Karpas422 cells (setting [2]) came out at 0.155 µM. Besides, the Kd at BCL6 BTB domain came out at 11.1 nM. Also, the EC50 in test [1] (setting [3]) was found to be 0.317 µM.

`CC[C@@H]1CN(c2cc(NC(=O)Cn3cc(-c4cc(Cl)c(O)c(C(N)=O)c4)c4c(=O)n(C)cnc43)c(Cl)cn2)CCO1` [Compound I-202]: the IC50 in the test on Karpas422 cells (setting [2]) turned out to be 0.156 µM. This compound also yielded a Kd on BCL6 BTB domain of 23.9 nM. For the same compound, the EC50 in test [1] (setting [3]) was 0.211 µM.

With `CC[C@H]1CN(c2cc(NC(=O)Cn3cc(-c4cc(Cl)c(O)c(C(N)=O)c4)c4c(=O)n(C)cnc43)c(Cl)cn2)CCO1` [Compound I-203], the IC50 with Karpas422 cells (setting [2]) came to 0.187 µM. The compound also came in with a Kd at BCL6 BTB domain of 30.6 nM. Further, the EC50 in test [1] (setting [3]) is 0.222 µM.

Turning to `CC(C)[C@H]1CN(c2cc(NC(=O)Cn3cc(-c4cc(Cl)c(O)c(C(N)=O)c4)c4c(=O)n(C)cnc43)c(Cl)cn2)CCO1` [Compound I-204], in the test with Karpas422 cells (setting [2]), the IC50 worked out at 0.146 µM. In addition, the Kd on BCL6 BTB domain was 35.7 nM. Also, in test [1] (setting [3]), the EC50 was 0.251 µM.

On to `CC(C)[C@@H]1CN(c2cc(NC(=O)Cn3cc(-c4cc(Cl)c(O)c(C(N)=O)c4)c4c(=O)n(C)cnc43)c(Cl)cn2)CCO1` [Compound I-205], for which the IC50 in the test with Karpas422 cells (setting [2]) worked out at 0.457 µM. On BCL6 BTB domain, this compound displayed a Kd of 43.6 nM. Besides, the EC50 in test [1] (setting [3]) was 0.248 µM.

With `Cc1nc2c(c(-c3cc(Cl)c(O)c(C(N)=O)c3)cn2CC(=O)Nc2cc(N3CCN(C)C[C@@H]3C)ncc2Cl)c(=O)n1C` [Compound I-206], the IC50 in the test on Karpas422 cells (setting [2]) is 0.128 µM. On BCL6 BTB domain, this compound registered a Kd of 9.34 nM. Besides, in test [1] (setting [3]), the EC50 amounted to 0.122 µM.

Regarding `Cc1nc2c(c(-c3cc(F)c(O)c(C(N)=O)c3)cn2CC(=O)Nc2cc(N3CCN(C)C[C@@H]3C)ncc2Cl)c(=O)n1C` [Compound I-207], the IC50 in the test with Karpas422 cells (setting [2]) worked out at 0.0703 µM. This compound also registered a Kd on BCL6 BTB domain of 4.45 nM. In addition, the EC50 in test [1] (setting [3]) came out at 0.0429 µM.

Regarding `Cn1cnc2c(c(-c3cc(Cl)c(O)c(C(N)=O)c3)cn2CC(=O)Nc2cc(F)nc(F)c2F)c1=O` [Compound I-208], the IC50 in the test with Karpas422 cells (setting [2]) is 1.2 µM. The same compound gave a Kd on BCL6 BTB domain of 567 nM. In test [1] (setting [3]), the EC50 is 5.15 µM.

Turning to `C=Cc1cc(NC(=O)Cn2cc(-c3cc(Cl)c(O)c(C(N)=O)c3)c3c(=O)n(C)cnc32)c(Cl)cn1` [Compound I-209], in the test on Karpas422 cells (setting [2]), the IC50 amounted to 0.343 µM. On BCL6 BTB domain, the Kd came to 51 nM. Also, the EC50 in test [1] (setting [3]) is 0.296 µM.

As for `Cn1cnc2c(c(-c3cc(Cl)c(O)c(C(N)=O)c3)cn2CC(=O)Nc2c(F)c(F)nc(F)c2Cl)c1=O` [Compound I-210], the IC50 with Karpas422 cells (setting [2]) worked out at 6.16 µM. This compound also had a Kd at BCL6 BTB domain of 1100 nM. Also, the EC50 in test [1] (setting [3]) turned out to be 14.9 µM.

For the compound `Cn1cnc2c(c(-c3cc(Cl)c(O)c(C(N)=O)c3)cn2CC(=O)NC2CCCCC2)c1=O` [Compound I-211], the IC50 in the test on Karpas422 cells (setting [2]) is 10 µM. For the same compound, the Kd on BCL6 BTB domain was determined as 1210 nM. Further, in test [1] (setting [3]), the EC50 came out at 10 µM.

On to `Cn1cnc2c(c(-c3cc(Cl)c(O)c(C(N)=O)c3)cn2CC(=O)Nc2cc(N3CCOCC3(C)C)ncc2Cl)c1=O` [Compound I-212], for which, in the test on Karpas422 cells (setting [2]), the IC50 stood at 0.457 µM. On BCL6 BTB domain, the Kd worked out at 28.4 nM. Moreover, in test [1] (setting [3]), the EC50 came to 0.494 µM.
